Laboratory results from ChEMBL document CHEMBL1201862, “PubChem BioAssay data set” (2004).
Calls of active or inactive are those of the source.

Key:
HEK293 = assay: Fluorescence-based counterscreen for potentiators or agonists of NPY-Y2: cell-based high-throughput dose response assay to identify inhibitors of cyclic nucleotide gated ion channel (CNGC) activity. In this assay, the parental HEK293 cell line transfected with a cyclic-nucleotide gated ion channel (CNGC)-based cAMP sensor is used to measure inhibition of isoproterenol-induced CNGC activity by test compound.; format: functional; conditions: Homo sapiens;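 note: stimulus is 1 µM isoproterenol at EC100 plus PDE inhibitor Ro 20-1724 at 25 µM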
[1] = molecular target: T1, Neuropeptide Y receptor type 2 (Homo sapiens, UniProt P49146); assay: Fluorescence-based cell-based high-throughput dose response assay for agonists of NPY-Y2. [Related pubchem assays: 1703 (Screening assay (CNGC inhibitors).), 1359 (Screening assay (NPY-Y2 potentiators or agonists).), 1304 (Screening assay (NPY-Y1 potentiators or agonists).), 1710 (Screening assay (NPY-Y2 agonists).), 1791 (Summary AID.)]; format: functional
T1 sequence (P49146 whole entry): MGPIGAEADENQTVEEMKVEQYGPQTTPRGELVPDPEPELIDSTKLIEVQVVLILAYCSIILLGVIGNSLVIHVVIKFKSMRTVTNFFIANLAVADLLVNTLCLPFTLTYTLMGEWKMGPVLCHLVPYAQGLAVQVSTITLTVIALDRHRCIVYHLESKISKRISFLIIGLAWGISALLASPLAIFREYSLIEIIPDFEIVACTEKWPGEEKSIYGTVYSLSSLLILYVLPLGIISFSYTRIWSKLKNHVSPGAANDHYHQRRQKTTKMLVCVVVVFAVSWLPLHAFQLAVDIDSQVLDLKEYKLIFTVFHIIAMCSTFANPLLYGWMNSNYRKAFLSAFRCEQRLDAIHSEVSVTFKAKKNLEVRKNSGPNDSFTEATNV

[2] = molecular target: T2, Neuropeptide Y receptor type 1 (Homo sapiens, UniProt P25929); assay: Fluorescence-based counterscreen for agonists of NPY-Y2: cell-based high-throughput dose response assay for agonists of NPY-Y1.; format: functional
T2 sequence (P25929 whole entry): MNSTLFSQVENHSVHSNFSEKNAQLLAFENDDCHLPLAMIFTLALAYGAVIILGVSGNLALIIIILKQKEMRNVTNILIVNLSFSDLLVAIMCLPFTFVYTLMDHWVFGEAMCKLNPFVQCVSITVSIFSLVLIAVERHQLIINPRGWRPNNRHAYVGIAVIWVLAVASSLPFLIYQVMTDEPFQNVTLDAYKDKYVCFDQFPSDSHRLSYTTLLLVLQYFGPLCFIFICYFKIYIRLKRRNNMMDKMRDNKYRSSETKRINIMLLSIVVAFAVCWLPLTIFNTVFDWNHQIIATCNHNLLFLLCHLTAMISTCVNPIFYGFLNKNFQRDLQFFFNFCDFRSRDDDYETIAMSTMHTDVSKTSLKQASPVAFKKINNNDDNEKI

[3] = molecular target: T3, Eukaryotic translation initiation factor 2-alpha kinase 3 (Homo sapiens, UniProt Q9NZJ5); assay: Dose response cell-based high-throughput screening assay to measure PERK inhibition. [Related pubchem assays: 1416 ]; format: functional
T3 sequence (Q9NZJ5 whole entry): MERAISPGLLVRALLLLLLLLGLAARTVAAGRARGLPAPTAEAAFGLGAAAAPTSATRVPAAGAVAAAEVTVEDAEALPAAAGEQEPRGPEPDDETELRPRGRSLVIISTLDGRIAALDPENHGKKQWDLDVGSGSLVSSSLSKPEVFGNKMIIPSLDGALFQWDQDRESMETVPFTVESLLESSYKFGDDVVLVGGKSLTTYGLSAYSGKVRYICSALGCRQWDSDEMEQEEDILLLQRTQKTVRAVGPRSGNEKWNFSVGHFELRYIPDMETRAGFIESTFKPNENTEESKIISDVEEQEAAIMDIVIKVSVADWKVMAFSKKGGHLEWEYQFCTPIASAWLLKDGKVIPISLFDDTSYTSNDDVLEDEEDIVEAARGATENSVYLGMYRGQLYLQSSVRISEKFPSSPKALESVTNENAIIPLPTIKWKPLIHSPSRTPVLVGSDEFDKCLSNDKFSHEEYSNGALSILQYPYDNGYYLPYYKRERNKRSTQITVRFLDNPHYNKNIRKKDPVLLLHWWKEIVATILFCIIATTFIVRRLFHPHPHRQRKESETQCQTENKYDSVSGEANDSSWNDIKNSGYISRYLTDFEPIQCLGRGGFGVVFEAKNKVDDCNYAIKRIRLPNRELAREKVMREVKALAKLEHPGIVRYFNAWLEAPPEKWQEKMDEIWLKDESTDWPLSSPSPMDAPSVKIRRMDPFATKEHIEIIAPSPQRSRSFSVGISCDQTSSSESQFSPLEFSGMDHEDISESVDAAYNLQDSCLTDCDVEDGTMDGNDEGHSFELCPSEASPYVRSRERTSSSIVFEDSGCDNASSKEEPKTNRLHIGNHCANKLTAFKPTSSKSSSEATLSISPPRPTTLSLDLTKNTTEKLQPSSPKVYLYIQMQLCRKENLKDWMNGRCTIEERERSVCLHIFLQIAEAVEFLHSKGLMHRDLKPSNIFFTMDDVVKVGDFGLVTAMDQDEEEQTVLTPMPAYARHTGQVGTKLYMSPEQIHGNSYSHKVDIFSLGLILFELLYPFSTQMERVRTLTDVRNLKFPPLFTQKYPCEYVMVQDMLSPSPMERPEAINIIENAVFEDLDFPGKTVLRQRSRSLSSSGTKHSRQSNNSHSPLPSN

[4] = molecular target: T3, Eukaryotic translation initiation factor 2-alpha kinase 3; assay: Counterscreen assay for PERK inhibitors: Dose response cell-based high throughput screening assay to measure inhibition of PERK at 6 hours. [Related pubchem assays: 1522, 1416 ]; format: functional
[5] = molecular target: Lysosomal acid glucosylceramidase (Homo sapiens, UniProt P04062); assay: Dose response cell-based high throughput screening assay to identify enhancers of beta-glucosidase activity. [Related pubchem assays: 784 ]; format: functional
[6] = molecular target: Acyl-homoserine lactone acylase PvdQ (Pseudomonas aeruginosa (strain LESB58), UniProt Q9I194); assay: P. aeruginosa PvdQ acylase inhibitors, dose response, biochemical, fluorescence, plate reader and imaging, cherry-picks (AID 493231)
cells = format: functional
Cytochrome P450 3A4 = Cytochrome P450 3A4 (Homo sapiens, UniProt P08684); conditions: Potency;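 note: confirmatory qHTS run detecting inhibitors and substrates of CYP3A4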
[7] = molecular target: Melanin-concentrating hormone receptor 1 (Homo sapiens, UniProt Q99705); assay: Late-stage fluorescence-based counterscreen for antagonists of the G-protein coupled receptor 7 (GPR7): cell-based dose response assay to identify antagonists of the melanin-concentrating hormone receptor 1 (MCHR1). [Related pubchem assays (depositor defined):AID1861, AID1880, AID1952, AID2148, AID2251, AID2257, AID485339]; format: functional;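 note: stimulated with 30 nM MCH peptide agonist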
Bcl-2-like protein 10 = Bcl-2-like protein 10 (Homo sapiens, UniProt Q9HD36); assay: displacers of TR3 peptide from Bcl-B, primary screen, selectivity assay for Bfl-1 inhibitor project, biochemical, fluorescence polarization, FITC-TR3 peptide (AID 748);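 note: fluorescence polarization from a fluorescein-labelled TR3 peptide binding purified Bcl-B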
Chain of Bcl-2-like protein 10 (Q9HD36 whole entry): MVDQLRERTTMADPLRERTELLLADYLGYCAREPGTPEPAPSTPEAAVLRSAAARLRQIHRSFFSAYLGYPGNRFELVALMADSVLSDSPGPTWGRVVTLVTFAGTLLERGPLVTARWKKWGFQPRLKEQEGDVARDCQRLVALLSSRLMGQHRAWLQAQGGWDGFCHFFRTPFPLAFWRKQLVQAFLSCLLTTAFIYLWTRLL

Chain of Melanin-concentrating hormone receptor 1 (Q99705 whole entry): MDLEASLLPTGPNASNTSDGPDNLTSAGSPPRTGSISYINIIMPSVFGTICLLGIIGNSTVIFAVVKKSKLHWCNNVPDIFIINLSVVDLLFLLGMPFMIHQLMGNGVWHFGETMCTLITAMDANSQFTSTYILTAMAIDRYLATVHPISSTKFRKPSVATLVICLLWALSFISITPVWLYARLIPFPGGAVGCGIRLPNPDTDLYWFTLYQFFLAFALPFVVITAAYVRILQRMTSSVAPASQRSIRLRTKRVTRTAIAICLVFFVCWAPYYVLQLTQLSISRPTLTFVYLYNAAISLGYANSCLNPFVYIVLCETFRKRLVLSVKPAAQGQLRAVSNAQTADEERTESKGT
Chain of Cytochrome P450 3A4 (P08684 whole entry): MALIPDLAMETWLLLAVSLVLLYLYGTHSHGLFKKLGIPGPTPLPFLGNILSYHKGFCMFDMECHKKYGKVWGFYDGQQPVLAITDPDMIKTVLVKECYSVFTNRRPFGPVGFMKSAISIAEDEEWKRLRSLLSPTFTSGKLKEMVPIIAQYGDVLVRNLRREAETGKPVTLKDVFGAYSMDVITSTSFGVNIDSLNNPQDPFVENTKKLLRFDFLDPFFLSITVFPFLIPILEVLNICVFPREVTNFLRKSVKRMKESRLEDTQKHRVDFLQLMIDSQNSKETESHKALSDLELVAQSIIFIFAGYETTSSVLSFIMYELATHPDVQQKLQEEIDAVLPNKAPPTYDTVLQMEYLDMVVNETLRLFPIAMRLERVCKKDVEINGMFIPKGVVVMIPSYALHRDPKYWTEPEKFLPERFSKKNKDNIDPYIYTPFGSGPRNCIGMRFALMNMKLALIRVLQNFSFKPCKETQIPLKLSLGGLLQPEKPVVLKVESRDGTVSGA
Chain of Lysosomal acid glucosylceramidase (P04062 whole entry): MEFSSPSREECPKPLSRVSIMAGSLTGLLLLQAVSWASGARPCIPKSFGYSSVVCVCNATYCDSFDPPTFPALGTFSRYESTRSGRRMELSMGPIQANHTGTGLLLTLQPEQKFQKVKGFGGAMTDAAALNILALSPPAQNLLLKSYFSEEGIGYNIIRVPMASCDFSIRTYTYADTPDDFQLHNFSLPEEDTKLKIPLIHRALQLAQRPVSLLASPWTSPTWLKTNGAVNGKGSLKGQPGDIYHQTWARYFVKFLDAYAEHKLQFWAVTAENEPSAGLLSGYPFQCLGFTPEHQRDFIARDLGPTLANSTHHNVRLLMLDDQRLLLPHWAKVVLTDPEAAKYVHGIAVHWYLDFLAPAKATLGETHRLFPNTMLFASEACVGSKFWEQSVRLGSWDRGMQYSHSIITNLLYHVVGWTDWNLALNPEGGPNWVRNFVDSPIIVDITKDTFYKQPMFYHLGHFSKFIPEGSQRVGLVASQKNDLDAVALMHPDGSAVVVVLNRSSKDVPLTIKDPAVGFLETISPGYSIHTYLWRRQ
Chain of Acyl-homoserine lactone acylase PvdQ (Q9I194 24-193 limits assumed): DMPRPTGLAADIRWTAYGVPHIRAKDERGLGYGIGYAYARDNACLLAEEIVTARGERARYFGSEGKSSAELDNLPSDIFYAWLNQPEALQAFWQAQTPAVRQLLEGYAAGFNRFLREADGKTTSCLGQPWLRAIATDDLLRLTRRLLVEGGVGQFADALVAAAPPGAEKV
Chain of Acyl-homoserine lactone acylase PvdQ (Q9I194 217-762 limits assumed): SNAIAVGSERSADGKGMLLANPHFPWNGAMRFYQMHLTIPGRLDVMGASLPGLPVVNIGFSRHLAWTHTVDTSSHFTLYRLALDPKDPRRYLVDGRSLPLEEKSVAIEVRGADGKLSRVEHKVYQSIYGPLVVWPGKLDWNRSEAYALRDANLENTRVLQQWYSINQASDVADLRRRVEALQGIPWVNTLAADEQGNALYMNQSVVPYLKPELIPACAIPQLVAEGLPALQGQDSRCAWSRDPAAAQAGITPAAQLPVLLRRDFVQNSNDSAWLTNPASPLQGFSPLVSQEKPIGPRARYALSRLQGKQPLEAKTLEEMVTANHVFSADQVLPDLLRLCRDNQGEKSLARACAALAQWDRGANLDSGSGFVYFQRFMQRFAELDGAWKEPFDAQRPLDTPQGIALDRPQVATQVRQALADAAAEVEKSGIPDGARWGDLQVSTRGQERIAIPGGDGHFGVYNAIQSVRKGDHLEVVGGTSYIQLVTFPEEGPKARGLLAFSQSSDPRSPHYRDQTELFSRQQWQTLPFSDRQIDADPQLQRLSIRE

For `CN(Cc1ccccc1)C(=O)CCNC(=O)Cn1cnc2ccccc2c1=O`, the EC50 (HEK293) was > 35.4 µM (not active), the EC50 [1] was > 35.4 µM (not active) and the EC50 [2] was > 35.4 µM (not active).
With `Cc1ccccc1OCC(O)CN1CCC(C)CC1` (stereo not drawn) the EC50 (HEK293) was 4.67 µM (active), the EC50 [1] was 33.3 µM (not active) and the EC50 [2] was 21.8 µM (not active).
In the case of `Cc1cnc(O)c([N+](=O)[O-])c1`, the EC50 [3] is reported as > 55.7 µM (not active) and the EC50 [4] is reported as > 55.7 µM (not active).
With `COCc1nnc(NC(=O)c2ccc(S(=O)(=O)N(C)C3CCCCC3)cc2)o1` the EC50 [5] was > 10 µM (not active).
For `O=C(OCc1nc2ccccc2s1)c1ccco1`, the AC50 [6] was 30.3 µM (active).
In the case of `CCOC(=O)c1c(C)n(C)c2ccc(OC(C)C(=O)OC)cc12` (stereo not drawn), the EC50 [5] is reported as > 10 µM (not active) and the IC50 (cells) is reported as 20.9 µM (active).
With `O=C(NC1CCCC1)c1cccc(Cl)c1` the AC50 [6] was 3.13 µM (active).
In the case of `CCC(C(=O)O)C1CCC(C)C(C(C)C(O)C(C)C(=O)C(CC)C2OC3(C=CC(O)[C@@]4(CC[C@](C)(C5CC[C@@](O)(CC)C(C)O5)O4)O3)C(C)CC2C)O1` (stereo partly drawn), the AC50 (Cytochrome P450 3A4) is reported as 39.8 µM (inconclusive).
For `COc1ccc(Oc2c(Cl)cnn(-c3cccc(C(C)C)c3)c2=O)cc1`, the IC50 [7] was 1.7 µM (active).
With `COC(=O)[C@@H]1C[C@@]2(O)[C@H](O)[C@H](O)[C@H](O)C[C@H]2N1Cc1cc(OC)cc(OC)c1` the AC50 (Cytochrome P450 3A4) was 15.8 µM (inconclusive).
With `COc1ccc(Oc2c(Cl)cnn(-c3ccc(C)cc3)c2=O)cc1OC` the IC50 [7] was 8.2 µM (active).
For `Cc1csc2nc(CNS(=O)(=O)N(C)C)cn12`, the IC50 (Bcl-2-like protein 10) was > 100 µM (inactive).
